Active and inactive are the calls of the source. Bounds are passed on as bounds.

The nature of experiment [1]: A Cell Based Secondary Assay To Explore Cytotoxicity of Compounds that Sensitize Mycobacterium Tuberculosis to Beta-Lactam Antibiotics. It is filed as functional.
The target of experiment [2] is T1, Sentrin-specific protease 8 (Homo sapiens, UniProt Q96LD8).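 Also: luminescence read-out of SENP8 inhibition, dose-response confirmation following an ultra-high-throughput screen.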
T1 sequence (Q96LD8 whole entry): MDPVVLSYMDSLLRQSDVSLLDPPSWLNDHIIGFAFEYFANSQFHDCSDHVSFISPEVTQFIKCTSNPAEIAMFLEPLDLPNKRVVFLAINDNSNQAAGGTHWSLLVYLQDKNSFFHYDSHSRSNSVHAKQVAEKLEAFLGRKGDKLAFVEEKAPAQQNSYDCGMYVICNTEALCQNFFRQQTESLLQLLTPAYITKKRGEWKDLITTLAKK
It is filed as functional.

The target of experiment [3] is T2, Sentrin-specific protease 6 (Homo sapiens, UniProt Q9GZR1).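 Also: Luminescence-based dose-response confirmatory assay of SENP6 inhibition, following up an ultra-high-throughput screen.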
T2 sequence (Q9GZR1 whole entry): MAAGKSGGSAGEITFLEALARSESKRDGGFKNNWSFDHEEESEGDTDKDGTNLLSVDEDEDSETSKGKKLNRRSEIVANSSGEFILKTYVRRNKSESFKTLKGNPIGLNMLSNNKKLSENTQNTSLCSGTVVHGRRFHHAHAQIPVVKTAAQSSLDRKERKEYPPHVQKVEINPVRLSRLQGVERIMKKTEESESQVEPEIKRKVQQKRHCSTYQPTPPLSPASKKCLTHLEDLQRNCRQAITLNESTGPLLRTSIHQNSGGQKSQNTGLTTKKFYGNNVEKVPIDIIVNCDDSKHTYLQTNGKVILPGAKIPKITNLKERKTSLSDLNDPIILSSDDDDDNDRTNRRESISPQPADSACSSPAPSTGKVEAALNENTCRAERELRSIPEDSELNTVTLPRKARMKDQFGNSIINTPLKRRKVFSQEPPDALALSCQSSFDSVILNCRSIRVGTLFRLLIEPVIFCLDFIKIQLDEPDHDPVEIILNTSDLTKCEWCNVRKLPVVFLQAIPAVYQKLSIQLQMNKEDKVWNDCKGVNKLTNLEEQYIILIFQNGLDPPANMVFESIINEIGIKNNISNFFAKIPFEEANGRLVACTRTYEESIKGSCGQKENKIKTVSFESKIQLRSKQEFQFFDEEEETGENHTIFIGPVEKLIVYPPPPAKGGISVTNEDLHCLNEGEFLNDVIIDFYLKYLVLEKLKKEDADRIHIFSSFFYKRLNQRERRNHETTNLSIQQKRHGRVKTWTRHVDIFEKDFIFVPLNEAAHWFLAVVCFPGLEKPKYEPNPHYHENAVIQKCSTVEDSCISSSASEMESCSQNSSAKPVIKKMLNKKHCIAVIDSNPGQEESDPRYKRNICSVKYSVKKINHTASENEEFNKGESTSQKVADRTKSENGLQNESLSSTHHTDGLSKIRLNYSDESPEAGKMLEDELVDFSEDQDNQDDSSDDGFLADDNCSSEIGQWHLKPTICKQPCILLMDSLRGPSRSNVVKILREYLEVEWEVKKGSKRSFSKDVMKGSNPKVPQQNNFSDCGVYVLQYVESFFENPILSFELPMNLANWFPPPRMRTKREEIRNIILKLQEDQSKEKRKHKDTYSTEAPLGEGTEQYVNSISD
The experiment is classed as functional.

A further experiment concerns the target Prothrombin (Homo sapiens, UniProt P00734). Put plainly: Thrombin 1536 HTS Dose Response Confirmation. [Related pubchem assays: 1046 (Thrombin 1536 HTS; hits were confirmed in this assay)]. The experiment is classed as functional.
The target of another experiment is T3, Caspase-3 (Homo sapiens, UniProt P42574).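 Also: Dose-response selectivity test against caspase-3 for candidate inhibitors of sentrin-specific proteases (SENPs).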
T3 sequence (P42574 whole entry): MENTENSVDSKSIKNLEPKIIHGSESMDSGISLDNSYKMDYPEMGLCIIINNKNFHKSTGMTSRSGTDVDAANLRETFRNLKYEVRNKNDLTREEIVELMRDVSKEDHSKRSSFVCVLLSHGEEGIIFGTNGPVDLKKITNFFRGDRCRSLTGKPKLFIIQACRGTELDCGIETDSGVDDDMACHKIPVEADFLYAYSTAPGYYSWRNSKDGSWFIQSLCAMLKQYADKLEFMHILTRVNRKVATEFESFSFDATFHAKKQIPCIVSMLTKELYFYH
The experiment is classed as functional.

Experiment [4] concerns the target T4, Sentrin-specific protease 7 (Homo sapiens, UniProt Q9BQF6).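 Also: Luminescence-based dose-response confirmation of ultra-high-throughput screening hits, measuring inhibition of SENP7.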
T4 sequence (Q9BQF6 whole entry): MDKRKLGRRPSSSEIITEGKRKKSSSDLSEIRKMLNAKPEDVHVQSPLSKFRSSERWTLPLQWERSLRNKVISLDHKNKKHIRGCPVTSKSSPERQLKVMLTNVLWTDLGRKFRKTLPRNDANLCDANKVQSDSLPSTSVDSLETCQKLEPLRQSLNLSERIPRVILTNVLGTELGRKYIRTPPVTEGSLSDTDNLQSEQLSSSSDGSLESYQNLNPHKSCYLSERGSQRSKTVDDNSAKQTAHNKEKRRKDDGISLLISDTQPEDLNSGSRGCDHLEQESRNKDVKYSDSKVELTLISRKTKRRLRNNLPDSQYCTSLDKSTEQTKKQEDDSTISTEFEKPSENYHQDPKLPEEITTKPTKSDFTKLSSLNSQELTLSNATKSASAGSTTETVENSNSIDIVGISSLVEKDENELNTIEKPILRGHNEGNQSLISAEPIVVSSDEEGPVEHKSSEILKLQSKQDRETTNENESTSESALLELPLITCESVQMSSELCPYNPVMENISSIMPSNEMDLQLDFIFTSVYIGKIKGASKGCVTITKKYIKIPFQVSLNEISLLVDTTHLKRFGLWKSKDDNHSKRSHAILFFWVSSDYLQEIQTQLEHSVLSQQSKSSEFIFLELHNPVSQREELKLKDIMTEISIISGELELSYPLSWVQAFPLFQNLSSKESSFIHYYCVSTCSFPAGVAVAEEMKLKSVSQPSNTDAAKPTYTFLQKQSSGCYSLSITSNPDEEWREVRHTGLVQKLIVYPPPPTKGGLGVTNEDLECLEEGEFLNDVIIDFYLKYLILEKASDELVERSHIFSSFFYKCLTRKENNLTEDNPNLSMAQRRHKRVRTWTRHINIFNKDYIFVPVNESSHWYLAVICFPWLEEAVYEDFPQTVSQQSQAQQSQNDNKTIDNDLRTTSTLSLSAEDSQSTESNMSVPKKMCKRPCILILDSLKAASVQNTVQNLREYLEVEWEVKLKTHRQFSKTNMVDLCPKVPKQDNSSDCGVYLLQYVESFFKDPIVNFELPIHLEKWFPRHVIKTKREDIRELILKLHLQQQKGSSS
The experiment is classed as functional.

The target of the next experiment is Ion channel NompC (Danio rerio, UniProt Q7T1G6). Nature of the experiment: Fluorescence counterscreen assay for TRPML3 agonists: dose response cell-based high-throughput screening assay to identify agonists of the transient receptor potential channel N1 (TRPN1). [Related pubchem assays: 1526, 1424, 1448 ]. The experiment is classed as functional.
Chain of Ion channel NompC (Q7T1G6 whole entry): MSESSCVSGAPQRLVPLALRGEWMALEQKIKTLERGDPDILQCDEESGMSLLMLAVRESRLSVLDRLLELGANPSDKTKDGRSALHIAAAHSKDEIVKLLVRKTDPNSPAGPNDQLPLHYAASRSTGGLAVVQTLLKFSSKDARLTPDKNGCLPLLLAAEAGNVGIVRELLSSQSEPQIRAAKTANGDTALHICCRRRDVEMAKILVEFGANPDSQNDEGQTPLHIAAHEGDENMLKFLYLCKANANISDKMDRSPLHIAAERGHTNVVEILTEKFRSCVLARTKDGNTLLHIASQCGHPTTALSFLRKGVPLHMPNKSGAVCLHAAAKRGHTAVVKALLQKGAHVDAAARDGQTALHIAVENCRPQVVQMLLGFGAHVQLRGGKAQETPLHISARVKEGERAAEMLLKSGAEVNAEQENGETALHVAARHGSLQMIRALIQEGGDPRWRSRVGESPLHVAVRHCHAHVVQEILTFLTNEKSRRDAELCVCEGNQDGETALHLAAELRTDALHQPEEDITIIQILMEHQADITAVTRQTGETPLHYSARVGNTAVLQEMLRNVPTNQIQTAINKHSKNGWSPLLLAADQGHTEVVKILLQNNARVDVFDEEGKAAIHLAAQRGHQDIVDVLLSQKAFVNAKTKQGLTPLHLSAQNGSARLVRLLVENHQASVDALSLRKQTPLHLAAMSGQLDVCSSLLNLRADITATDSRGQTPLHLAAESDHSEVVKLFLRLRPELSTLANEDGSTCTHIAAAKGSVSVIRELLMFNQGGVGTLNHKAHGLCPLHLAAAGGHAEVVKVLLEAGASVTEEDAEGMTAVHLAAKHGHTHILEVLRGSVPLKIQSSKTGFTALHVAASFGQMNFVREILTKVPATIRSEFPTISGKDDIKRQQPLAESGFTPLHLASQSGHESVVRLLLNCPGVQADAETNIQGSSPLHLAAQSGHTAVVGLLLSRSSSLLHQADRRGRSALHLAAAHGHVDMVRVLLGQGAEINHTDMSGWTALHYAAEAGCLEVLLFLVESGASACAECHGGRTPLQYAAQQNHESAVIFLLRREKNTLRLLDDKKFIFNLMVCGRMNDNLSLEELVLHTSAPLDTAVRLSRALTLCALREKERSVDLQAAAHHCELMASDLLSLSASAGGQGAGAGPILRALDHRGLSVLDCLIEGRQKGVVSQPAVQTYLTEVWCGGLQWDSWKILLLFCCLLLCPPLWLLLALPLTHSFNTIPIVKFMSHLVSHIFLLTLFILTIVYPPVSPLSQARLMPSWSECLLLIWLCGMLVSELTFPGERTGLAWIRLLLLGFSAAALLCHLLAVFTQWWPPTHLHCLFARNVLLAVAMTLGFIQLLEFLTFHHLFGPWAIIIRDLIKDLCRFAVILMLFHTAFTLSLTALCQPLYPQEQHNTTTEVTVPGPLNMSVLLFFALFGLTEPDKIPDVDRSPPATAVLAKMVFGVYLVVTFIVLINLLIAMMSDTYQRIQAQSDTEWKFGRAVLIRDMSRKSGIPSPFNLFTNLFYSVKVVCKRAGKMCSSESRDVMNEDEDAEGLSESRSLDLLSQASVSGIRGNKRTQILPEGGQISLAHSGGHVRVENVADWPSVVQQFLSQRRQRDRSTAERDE
The target in the next experiment is T5, Mucolipin-3 (Homo sapiens, UniProt Q8TDD5).
T5 sequence (Q8TDD5 whole entry): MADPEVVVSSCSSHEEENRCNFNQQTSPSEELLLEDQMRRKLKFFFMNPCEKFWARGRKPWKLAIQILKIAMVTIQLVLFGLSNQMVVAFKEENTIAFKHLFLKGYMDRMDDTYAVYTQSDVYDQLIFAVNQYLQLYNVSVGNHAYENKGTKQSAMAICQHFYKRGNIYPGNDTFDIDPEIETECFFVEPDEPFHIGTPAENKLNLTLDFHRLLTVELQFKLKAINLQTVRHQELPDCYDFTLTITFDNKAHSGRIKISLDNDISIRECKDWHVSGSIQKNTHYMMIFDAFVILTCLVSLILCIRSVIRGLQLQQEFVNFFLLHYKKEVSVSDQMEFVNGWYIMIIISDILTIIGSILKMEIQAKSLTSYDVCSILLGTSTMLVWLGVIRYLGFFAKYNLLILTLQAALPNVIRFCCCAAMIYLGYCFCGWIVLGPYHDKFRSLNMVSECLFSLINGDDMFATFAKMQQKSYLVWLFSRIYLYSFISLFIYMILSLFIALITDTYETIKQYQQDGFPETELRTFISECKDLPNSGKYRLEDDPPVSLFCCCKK
Nature of the experiment: Dose response cell-based high-throughput screening assay for agonists of the transient receptor potential channel ML3 (TRPML3). [Related pubchem assays: 1526, 1424, 1448 ]. The experiment is classed as functional.

The target of experiment [5] is T6, Mannose-6-phosphate isomerase (Homo sapiens, UniProt P34949).
T6 sequence (P34949 whole entry): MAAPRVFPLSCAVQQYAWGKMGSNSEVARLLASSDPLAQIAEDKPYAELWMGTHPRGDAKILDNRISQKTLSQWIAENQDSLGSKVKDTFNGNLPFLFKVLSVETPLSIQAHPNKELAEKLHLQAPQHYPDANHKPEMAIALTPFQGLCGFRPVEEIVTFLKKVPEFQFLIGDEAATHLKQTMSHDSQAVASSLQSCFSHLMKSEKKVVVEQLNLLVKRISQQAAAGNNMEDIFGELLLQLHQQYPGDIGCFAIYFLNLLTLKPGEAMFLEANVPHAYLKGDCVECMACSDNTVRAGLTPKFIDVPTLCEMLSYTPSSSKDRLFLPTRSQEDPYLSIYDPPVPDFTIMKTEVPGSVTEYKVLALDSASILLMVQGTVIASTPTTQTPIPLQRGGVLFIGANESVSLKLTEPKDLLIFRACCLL
Put plainly: MPI enzyme activity inhibition – biochemical, fluorescence intensity, coupled assay, primary screen (AID 1209).

A short description of the next experiment: cells. The experiment is classed as functional, cell-based.
Experiment [6] in a line: luciferase reporter signal reduction – luminescence, H4-C neuroglioblastoma cells, dose response (AID 2458).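 Also: H4 neuroglioblastoma cells stably carrying a luciferase reporter gene fusion.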 The experiment is classed as functional, cell-based. In general terms: Reporter assays use an easily measured gene product as a stand-in for the process of interest.
The nature of experiment [7]: luciferase reporter signal suppression in cells – H4 neuroglioma cells, luminescence, dose response (AID 1990). It is filed as functional, cell-based.
Experiment [8] is described as follows: alpha-synuclein stem-loop luciferase translation blockers – H4 neuroglioma cells, luminescence, confirmation (AID 1988). It is filed as functional, cell-based.
Experiment [9] can be described thus: Luminescence Cell-Based Dose Response HTS to Identify Inhibitors of 5'UTR Stem-Loop Driven Prion Protein mRNA Translation in H4 Neuroglioblastoma Cells. [Related pubchem assays: 1827 (Project Summary), 1813 (Primary HTS)]. The experiment is classed as functional.
A short description of experiment [10]: alpha-synuclein stem-loop translation blockers – luminescence, H4 neuroglioblastoma cells, dose confirmation, confirmation (AID 2454).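 Also: H4 neuroglioblastoma cells carrying an alpha-synuclein 5'UTR luciferase reporter; potency for inhibition of the luciferase signal.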 The experiment is classed as functional, cell-based.
Experiment [11] addresses Peroxisome proliferator-activated receptor gamma/Nuclear receptor coactivator 2 (Homo sapiens, UniProt P37231). The experiment is classed as functional.
Experiment [12] addresses Peroxisome proliferator-activated receptor gamma/Nuclear receptor coactivator 3 (Homo sapiens, UniProt P37231). It is filed as functional.
The target in experiment [13] is Peroxisome proliferator-activated receptor gamma/Nuclear receptor coactivator 1 (Homo sapiens, UniProt P37231). It is filed as functional.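 Also: agonist potency as compounds enhance coactivator SRC-1 recruitment to PPARgamma.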
Chain of Peroxisome proliferator-activated receptor gamma/Nuclear receptor coactivator 1 (P37231 whole entry): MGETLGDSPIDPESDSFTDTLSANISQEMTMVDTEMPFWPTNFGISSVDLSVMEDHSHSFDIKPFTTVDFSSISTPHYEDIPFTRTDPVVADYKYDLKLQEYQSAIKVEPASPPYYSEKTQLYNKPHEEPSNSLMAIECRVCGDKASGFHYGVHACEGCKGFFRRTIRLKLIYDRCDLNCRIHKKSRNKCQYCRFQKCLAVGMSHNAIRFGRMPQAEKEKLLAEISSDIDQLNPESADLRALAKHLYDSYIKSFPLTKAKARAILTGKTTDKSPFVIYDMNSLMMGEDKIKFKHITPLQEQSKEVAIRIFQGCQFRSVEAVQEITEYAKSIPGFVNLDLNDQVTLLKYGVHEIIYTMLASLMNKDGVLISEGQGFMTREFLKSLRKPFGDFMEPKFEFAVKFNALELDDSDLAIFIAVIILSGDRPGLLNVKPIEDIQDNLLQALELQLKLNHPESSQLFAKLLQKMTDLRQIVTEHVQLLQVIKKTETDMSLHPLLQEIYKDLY
Chain of Peroxisome proliferator-activated receptor gamma/Nuclear receptor coactivator 1 (Q15788 whole entry, further chain): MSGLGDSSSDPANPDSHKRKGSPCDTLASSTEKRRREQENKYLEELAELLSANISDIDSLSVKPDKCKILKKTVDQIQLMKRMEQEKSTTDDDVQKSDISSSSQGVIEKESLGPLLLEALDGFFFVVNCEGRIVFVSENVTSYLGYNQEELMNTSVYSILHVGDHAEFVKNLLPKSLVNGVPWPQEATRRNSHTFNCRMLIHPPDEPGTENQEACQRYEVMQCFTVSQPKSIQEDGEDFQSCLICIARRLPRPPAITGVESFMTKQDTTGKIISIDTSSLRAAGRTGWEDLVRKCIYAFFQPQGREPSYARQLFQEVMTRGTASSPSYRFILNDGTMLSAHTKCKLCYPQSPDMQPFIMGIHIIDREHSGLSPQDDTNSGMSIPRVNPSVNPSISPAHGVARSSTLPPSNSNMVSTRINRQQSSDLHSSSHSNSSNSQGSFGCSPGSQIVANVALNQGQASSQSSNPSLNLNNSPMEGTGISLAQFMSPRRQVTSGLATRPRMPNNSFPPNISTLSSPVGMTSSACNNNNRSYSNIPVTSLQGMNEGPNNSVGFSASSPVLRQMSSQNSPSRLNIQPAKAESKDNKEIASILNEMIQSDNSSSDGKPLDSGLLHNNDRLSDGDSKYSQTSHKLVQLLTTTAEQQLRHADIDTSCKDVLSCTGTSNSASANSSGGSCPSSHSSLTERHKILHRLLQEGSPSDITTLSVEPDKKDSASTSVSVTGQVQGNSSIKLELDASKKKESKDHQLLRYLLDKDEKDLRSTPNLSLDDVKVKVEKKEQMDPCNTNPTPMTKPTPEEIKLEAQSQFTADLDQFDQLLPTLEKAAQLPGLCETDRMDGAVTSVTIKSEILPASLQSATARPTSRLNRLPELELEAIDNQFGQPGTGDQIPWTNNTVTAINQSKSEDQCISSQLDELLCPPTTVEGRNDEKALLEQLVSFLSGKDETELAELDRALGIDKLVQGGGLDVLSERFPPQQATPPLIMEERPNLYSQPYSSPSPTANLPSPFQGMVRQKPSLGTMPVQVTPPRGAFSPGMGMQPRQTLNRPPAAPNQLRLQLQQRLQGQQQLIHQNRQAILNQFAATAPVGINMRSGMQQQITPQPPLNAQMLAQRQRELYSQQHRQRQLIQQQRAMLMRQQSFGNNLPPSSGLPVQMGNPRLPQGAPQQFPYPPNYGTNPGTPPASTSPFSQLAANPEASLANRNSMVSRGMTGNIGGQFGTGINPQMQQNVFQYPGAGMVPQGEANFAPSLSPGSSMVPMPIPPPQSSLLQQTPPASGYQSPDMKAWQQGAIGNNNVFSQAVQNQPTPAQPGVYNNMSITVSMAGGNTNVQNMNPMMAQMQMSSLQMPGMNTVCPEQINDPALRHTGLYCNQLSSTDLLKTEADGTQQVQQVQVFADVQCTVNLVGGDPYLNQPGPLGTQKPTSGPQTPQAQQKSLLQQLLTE

Regarding `O=c1[nH]c(/C=C/c2cccc(Br)c2)nc2ccccc12`, the CC50 in experiment [1] is 33.4 µM (active).

Turning to `Cc1cccc(C(=O)Nc2sc(C)c(-c3ccccc3)c2C#N)c1`, the IC50 is > 100 µM (inactive) in experiment [2]; > 100 µM (inactive) in experiment [3]; > 50 µM (not active) against Prothrombin; 38.5 µM (active) at Caspase-3; 7.15 µM (active) in experiment [4].

Take `CCC(Oc1cc(Cl)ccc1Cl)C(=O)NN1C(=O)C2C3CCC(C3=C(C)C)C2C1=O` (stereo not given): the EC50 on Ion channel NompC was 23.7 µM (not active); at Mucolipin-3, 3.99 µM (active).

Regarding `CCN(C1CCCCC1)S(=O)(=O)c1cc(C)ccc1OC`, the EC50 at Ion channel NompC is > 29.9 µM (not active); on Mucolipin-3 it was 3.39 µM (active).

For `CCCC(=O)Oc1c(S(=O)(=O)c2ccc(C)cc2)c(C)nn1C(C)(C)C`, the EC50 at Ion channel NompC was > 29.9 µM (not active); on Mucolipin-3, 2.31 µM (active).

In the case of `CN(C)S(=O)(=O)N1CCN(c2cc(Cl)ccc2Cl)CC1`, the EC50 is reported as > 29.9 µM (not active) at Ion channel NompC and 26.5 µM (not active) on Mucolipin-3.

For the molecule `Cc1ccc(N2C(=O)CC(Sc3nc[nH]n3)C2=O)cc1C` (stereo not given), in experiment [5], the IC50 was > 50 µM (not active).

Regarding `O=C1COc2ccc(C(=O)/C=C/c3ccccc3)cc2N1`, the cytotoxic concentration (CC50) in experiment [1] was 21.5 µM (active).

As for `CCC(C)Nc1nc(N)c([N+](=O)[O-])c(NC2CCCCC2)n1` (stereo not given), the EC50 in “cells” is > 12 µM (not active); in experiment [6] it was > 12 µM (not active); in experiment [7] it was 13.2 µM (active); in [8], 9.77 µM (active); in experiment [9] it was < 0.1 µM (active); in experiment [10], > 12 µM (not active).

As to `N#Cc1ccccc1/C=N/Nc1nc(-c2ccccc2)c2cc(Br)ccc2n1`, the CC50 in experiment [1] is > 40 µM (active).

Take `CSc1ccccc1NC(=O)Cn1c(-c2cscn2)nc2ccccc21`: the EC50 in [11], in experiment [12] and in experiment [13] was > 79.4 µM (not active) each time.

For `N#Cc1ccc(/C=N/NC(=N)N)cc1`, the EC50 in experiment [11], in experiment [12] and in experiment [13] was > 79.4 µM (not active) in each case.

Consider `COc1ccc(C(=O)/N=c2\sc3ccccc3n2C)cc1OC`, for which the EC50 in experiment [11], in experiment [12] and in experiment [13] was > 79.4 µM (not active) in each case.

For the molecule `COc1cccc(/C=N/NC(=O)c2csc(-n3nc(C)cc3C(F)(F)F)n2)c1`, the EC50 in [11], in [12] and in experiment [13] was > 79.4 µM (not active) in each case.

What is called CC50 is the concentration at which the toxic effect on the cells reaches its halfway point. What is called IC50 is the concentration that inhibits the measured activity by half. In general, EC50 refers to the concentration giving half of the maximal effect.

For the origin of these results see ChEMBL document CHEMBL1201862, “PubChem BioAssay data set” (2004).
